The term Kd denotes the constant that tells how readily two partners part at equilibrium. High values mean lower affinity, low ones higher affinity.

Molecules are shown by their SMILES.

6 molecules from publication PMC5736629, “Allosteric modulation of protein-protein interactions by individual lipid binding events” (Nature Communications, 2017) can be followed below.

In one assay the target is T1, AmtB–GlnK interaction (Escherichia coli, UniProt P69681).
T1 construct: pelB signal peptide (N, cleaved yes); 10x His-tag (N, cleaved yes); made in house; host or cells: AmtB: Escherichia coli C41(DE3), pET15b; stGlnK: Escherichia coli ArcticExpress (DE3) RIL, pET28b
Briefly: Native MS lipid titration, GlnK binding to apo or lipid-bound AmtB; coupling factors (allosteric modulation). Conditions: for Kd: 50 µM ADP, 298 K; for Coupling factor a1: first bound lipid; for allosteric modulation of AmtB–GlnK (from coupling factors) / effect of lipid-binding events on K D,ALnG: result in words; for Coupling factor a2: second bound lipid; for Coupling factor a3: third bound lipid; for increase in the coupling factor per lipid-binding event: linear fit to the coupling factors as a function of bound lipid. The protocol: (§1) A stock of ADP was prepared by dissolving the ammonium salt form of ADP in water followed by adjusting the pH with ammonium hydroxide to 7.0. Serial dilutions into MS buffer (200 mM ammonium acetate, 0.5% C8E4, and pH adjusted to 7.4 with ammonium hydroxide) supplemented with 5 mM BME was performed to prepare ADP at certain concentrations. Phospholipids were prepared as previously described. In brief, stock solutions of each phospholipid were resuspended in chloroform, aliqouted, and chloroform was removed by a steady stream on nitrogen gas. Lipid films were placed under vacuum overnight to prepare to resuspend in MS buffer supplemented with 5 mM 2-mercaptoethanol. Phospholipid concentration was determined by phosphorus analysis.

The target in a further assay is T2, AmtB–GlnK complex (Escherichia coli, UniProt P69681).
T2 construct: pelB signal peptide (N, cleaved yes); 10x His-tag (N, cleaved yes); made in house; host or cells: AmtB: Escherichia coli C41(DE3), pET15b; stGlnK: Escherichia coli ArcticExpress (DE3) RIL, pET28b
Briefly: Native MS lipid titration, lipid binding to AmtB–GlnK (equilibrium-coupled binding model). The following applies: 50 µM ADP, 298 K. On the procedure:
as §1

For a further assay, the target named is T3, AmtB (Escherichia coli, UniProt P69681).
T3 construct: pelB signal peptide (N, cleaved yes); 10x His-tag (N, cleaved yes); made in house; host or cells: Escherichia coli C41(DE3), pET15b
Briefly: Native MS lipid titration, lipid binding to AmtB (equilibrium-coupled binding model). Conditions: 50 µM ADP, 298 K. The protocol: as §1

Setting [1] is: KD,AG, GlnK binding apo AmtB, from global fit of the titration with the named lipid.
Where [2] appears, read: KD,AL2G, GlnK binding AmtB bound to 2 lipids.
Where [3] appears, read: KD,AL3G, GlnK binding AmtB bound to 3 lipids.
Where [4] appears, read: KD,ALG, GlnK binding AmtB bound to 1 lipid.
The mark [5] stands for this setting: KD,AGL1, first lipid binding to AmtB–GlnK.
Where [6] appears, read: KD,AGL2, second lipid binding to AmtB–GlnK.
[7] abbreviates: KD,AGL3, third lipid binding to AmtB–GlnK.
The mark [8] stands for this setting: KD,AL1, first lipid binding to AmtB.
Where [9] appears, read: KD,AL2, second lipid binding to AmtB.
Setting [10] is: KD,AL3, third lipid binding to AmtB.

T3 sequence (P69681 23-428): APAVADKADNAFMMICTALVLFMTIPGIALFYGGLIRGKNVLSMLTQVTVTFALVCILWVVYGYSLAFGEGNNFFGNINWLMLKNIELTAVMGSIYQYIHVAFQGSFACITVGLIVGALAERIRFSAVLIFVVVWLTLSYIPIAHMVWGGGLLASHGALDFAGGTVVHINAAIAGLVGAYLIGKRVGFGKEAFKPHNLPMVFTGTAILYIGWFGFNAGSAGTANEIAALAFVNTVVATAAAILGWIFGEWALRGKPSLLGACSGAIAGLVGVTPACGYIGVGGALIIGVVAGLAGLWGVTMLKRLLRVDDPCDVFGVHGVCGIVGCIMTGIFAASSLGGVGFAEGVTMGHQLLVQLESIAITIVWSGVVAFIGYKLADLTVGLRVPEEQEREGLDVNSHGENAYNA
T2 sequence (P0AC55 whole entry Y51F): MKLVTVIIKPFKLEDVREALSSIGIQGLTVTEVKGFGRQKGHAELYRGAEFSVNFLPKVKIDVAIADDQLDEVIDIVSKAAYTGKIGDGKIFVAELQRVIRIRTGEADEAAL
T2 sequence (P69681 23-428): as the sequence (P69681 23-428) above
T1 sequence (P0AC55 whole entry Y51F): as the sequence (P0AC55 whole entry Y51F) above
T1 sequence (P69681 23-428): as the sequence (P69681 23-428) above

Consider `CCCCCCCC/C=C\CCCCCCCC(=O)O[C@H](COC(=O)CCCCCCCCCCCCCCC)COP(=O)(O)O` [POPA], for which the equilibrium dissociation constant (Kd) was determined as 0.517 ± 0.0463 µM on AmtB–GlnK interaction (setting [1]); 0.707 ± 0.0945 µM on AmtB–GlnK interaction (setting [2]); 0.75 ± 0.0992 µM on AmtB–GlnK interaction (setting [3]); 0.644 ± 0.0735 µM at AmtB–GlnK interaction (setting [4]); 10 ± 0.31 µM on AmtB–GlnK complex (setting [5]); 19.8 ± 0.58 µM at AmtB–GlnK complex (setting [6]). The Kd was determined as 26.2 ± 2.19 µM on AmtB–GlnK complex (setting [7]), 8.11 ± 0.41 µM on AmtB (setting [8]), 18.1 ± 1.18 µM on AmtB (setting [9]) and 24.7 ± 2.44 µM at AmtB (setting [10]). In addition, the “Coupling factor a1” value on AmtB–GlnK interaction was found to be 0.81 ± 0.02. The “allosteric modulation of AmtB–GlnK (from coupling factors)” value (“allosteric modulation of AmtB–GlnK” below) at AmtB–GlnK interaction was “slight negative allosteric modulation”. Further, on AmtB–GlnK interaction, the “effect of lipid-binding events on K D,ALnG” value (“effect” for short) is “each binding event weakening the molecular interaction between AmtB and GlnK”. Also, on AmtB–GlnK interaction, the “Coupling factor a2” value was found to be 0.92 ± 0.04. At AmtB–GlnK interaction, the “Coupling factor a3” value came out at 0.94 ± 0.04.

Turning to `CCCCCCCC/C=C\CCCCCCCC(=O)O[C@H](COC(=O)CCCCCCCCCCCCCCC)COP(=O)([O-])OCC[N+](C)(C)C` [POPC], the Kd on AmtB–GlnK interaction (setting [1]) was 0.486 ± 0.0325 µM; at AmtB–GlnK interaction (setting [2]) it was 0.192 ± 0.0112 µM; at AmtB–GlnK interaction (setting [4]) it was 0.345 ± 0.0822 µM; at AmtB–GlnK complex (setting [5]), 18.9 ± 1.36 µM; on AmtB–GlnK complex (setting [6]), 40.3 ± 3.92 µM; on AmtB–GlnK complex (setting [7]), 59.5 ± 17.9 µM. Further, the Kd at AmtB (setting [8]) is 29.2 ± 5.99 µM; at AmtB (setting [9]), 68.3 ± 4.81 µM; at AmtB (setting [10]), 104 ± 7.56 µM. Besides, the “Coupling factor a1” value on AmtB–GlnK interaction is on record as 1.52 ± 0.23. For the same molecule, the “effect” value on AmtB–GlnK interaction is “decrease in K D,ALnG with each consecutive binding event”. Further, on AmtB–GlnK interaction, the “Coupling factor a2” value worked out at 1.76 ± 0.31. Moreover, the “Coupling factor a3” value at AmtB–GlnK interaction is 2.50 ± 0.80.

Take `CCCCCCCC/C=C\CCCCCCCC(=O)O[C@H](COC(=O)CCCCCCCCCCCCCCC)COP(=O)(O)OCCN` [POPE]: the Kd stood at 0.504 ± 0.0616 µM on AmtB–GlnK interaction (setting [1]); 0.245 ± 0.0372 µM at AmtB–GlnK interaction (setting [2]); 0.137 ± 0.0482 µM on AmtB–GlnK interaction (setting [3]); 0.391 ± 0.0593 µM at AmtB–GlnK interaction (setting [4]); 16.3 ± 0.4 µM at AmtB–GlnK complex (setting [5]); 33.6 ± 1.24 µM on AmtB–GlnK complex (setting [6]). For the same molecule, the dissociation constant (Kd) on AmtB–GlnK complex (setting [7]) is 47.7 ± 7.02 µM; on AmtB (setting [8]), 21.1 ± 0.27 µM; at AmtB (setting [9]), 55.3 ± 9.22 µM; on AmtB (setting [10]) it was 96.2 ± 27 µM. The “Coupling factor a1” value on AmtB–GlnK interaction turned out to be 1.30 ± 0.04. Moreover, the “increase in the coupling factor per lipid-binding event” value on AmtB–GlnK interaction is 0.4. Besides, on AmtB–GlnK interaction, the “allosteric modulation of AmtB–GlnK” value is given as “positive allosteric modulation”. Further, the “effect” value at AmtB–GlnK interaction was “decrease in K D,ALnG with each consecutive binding event”. Also, the “Coupling factor a2” value at AmtB–GlnK interaction turned out to be 1.63 ± 0.24. For the same molecule, at AmtB–GlnK interaction, the “Coupling factor a3” value is 2.04 ± 0.37.

On to `CCCCCCCC/C=C\CCCCCCCC(=O)O[C@H](COC(=O)CCCCCCCCCCCCCCC)COP(=O)(O)OCC(O)CO` (stereo partly shown) [POPG], for which the equilibrium dissociation constant (Kd) on AmtB–GlnK interaction (setting [1]) is 0.54 ± 0.0267 µM; on AmtB–GlnK interaction (setting [2]) it was 0.396 ± 0.0754 µM; on AmtB–GlnK interaction (setting [3]), 0.313 ± 0.162 µM; on AmtB–GlnK interaction (setting [4]) it was 0.485 ± 0.0356 µM; at AmtB–GlnK complex (setting [5]), 12.04 ± 0.06 µM; at AmtB–GlnK complex (setting [6]), 25.4 ± 1.11 µM. Besides, the Kd at AmtB–GlnK complex (setting [7]) is 34.3 ± 3.4 µM; at AmtB (setting [8]), 13.5 ± 0.73 µM; on AmtB (setting [9]), 33.3 ± 6.39 µM; at AmtB (setting [10]), 56.7 ± 11.8 µM. For the same molecule, at AmtB–GlnK interaction, the “Coupling factor a1” value came out at 1.12 ± 0.06. Besides, the “increase in the coupling factor per lipid-binding event” value on AmtB–GlnK interaction is 0.3. Also, the “allosteric modulation of AmtB–GlnK” value at AmtB–GlnK interaction was “positive allosteric modulation”. Further, the “effect” value at AmtB–GlnK interaction was “decrease in K D,ALnG with each consecutive binding event”. For the same molecule, the “Coupling factor a2” value at AmtB–GlnK interaction is on record as 1.30 ± 0.21. The “Coupling factor a3” value at AmtB–GlnK interaction is 1.74 ± 0.46.

For `CCCCCCCC/C=C\CCCCCCCC(=O)O[C@H](COC(=O)CCCCCCCCCCCCCCC)COP(=O)(O)OC[C@H](N)C(=O)O` [POPS], the Kd on AmtB–GlnK interaction (setting [1]) stood at 0.499 ± 0.0347 µM; at AmtB–GlnK interaction (setting [2]), 0.405 ± 0.0395 µM; on AmtB–GlnK interaction (setting [3]), 0.363 ± 0.0372 µM; on AmtB–GlnK interaction (setting [4]), 0.446 ± 0.0644 µM; at AmtB–GlnK complex (setting [5]), 9.18 ± 0.6 µM; at AmtB–GlnK complex (setting [6]), 19.9 ± 0.36 µM. The Kd at AmtB–GlnK complex (setting [7]) worked out at 26.7 ± 1.82 µM; at AmtB (setting [8]) it was 10.5 ± 0.97 µM; on AmtB (setting [9]), 21.8 ± 1.97 µM; at AmtB (setting [10]), 30.4 ± 4.97 µM. The “Coupling factor a1” value on AmtB–GlnK interaction came out at 1.15 ± 0.09. In addition, the “allosteric modulation of AmtB–GlnK” value at AmtB–GlnK interaction is given as “neutral allosteric modulation”. Besides, the “effect” value at AmtB–GlnK interaction was “little effect on K D,ALnG”. Further, the “Coupling factor a2” value at AmtB–GlnK interaction is 1.09 ± 0.08. For the same molecule, the “Coupling factor a3” value at AmtB–GlnK interaction was found to be 1.13 ± 0.10.

For `CCCCCCCC/C=C\CCCCCCCC(=O)O[C@H](COC(=O)CCCCCCCCCCCCCCCCC)COP(=O)(O)OCCN` [SOPE], the Kd on AmtB–GlnK interaction (setting [1]) was found to be 0.528 ± 0.0448 µM; on AmtB–GlnK interaction (setting [2]) it was 0.321 ± 0.0944 µM; at AmtB–GlnK interaction (setting [3]), 0.215 ± 0.0607 µM; on AmtB–GlnK interaction (setting [4]), 0.482 ± 0.0919 µM; at AmtB–GlnK complex (setting [5]) it was 14.5 ± 1.28 µM; on AmtB–GlnK complex (setting [6]), 2.85 ± 2.32 µM. The dissociation constant Kd at AmtB–GlnK complex (setting [7]) turned out to be 45.2 ± 7.56 µM; on AmtB (setting [8]), 16.4 ± 1.39 µM; at AmtB (setting [9]), 46.6 ± 9.46 µM; on AmtB (setting [10]) it was 73.6 ± 22 µM. For the same molecule, the “Coupling factor a1” value at AmtB–GlnK interaction is given as 1.16 ± 0.19. The “Coupling factor a2” value on AmtB–GlnK interaction came out at 1.60 ± 0.19. On AmtB–GlnK interaction, the “Coupling factor a3” value was found to be 1.57 ± 0.25.
